Results from patent US10285959B2, “Combination therapies using HDAC inhibitors” (priority 2005, dated 2019).

Assays:
[1] = tested on: HCT116 colon cancer xenograft; experiment: HCT116 colon cancer subcutaneous xenograft model; format: in vivo, nu/nu mice
Experimental: The 5-FU dose was set at 15 mg/kg.
HCT116 colon cancer xenograph. Daily i.p. treatments with PXD101 (morning) and 5-FU (afternoon). Mean/SEM, n=10(9).

[2] = tested on: P388 i.p. mouse leukemia tumour; experiment: P388 mouse leukemia model, survival;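 further: female B6D1F1 mice implanted i.p. with P388 leukemia cells, Kaplan-Meier survival analysis, ILS% equals treated minus vehicle control median survival, divided by control median, times 100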
Experimental: P388 mouse leukemia cells were injected intrapertoneally (IP) into B6D1F1 female mice. […] Kaplan-Meier survival distribution graphs are shown for each combination.
The percentage Increased Life Span (ILS%) was calculated as the median survival (treatment group) minus median survival (vehicle control) divided by median survival (vehicle control) multiplied with 100:

[3] = tested on: diverse tumor cell lines; experiment: Proliferation of tumor cell lines; format: cell-based
[4] = tested on: EGFR protein in A431 cells; experiment: Western blot of EGFR protein levels; format: cell-based, human; conditions: 24 hours treatment
Excerpt: The blot was reprobed with an anti-actin antibody to control for lane loading.

[5] = tested on: HCC-4006; experiment: Growth inhibition/proliferation, PXD101 with Tarceva; format: cell-based; conditions: mutant EGFR
[6] = tested on: Calu-3; experiment: Growth inhibition/proliferation, PXD101 with Tarceva (CellTiter-Glo); format: cell-based, human; conditions: wtEGFR
[7] = 5-FU(30) mg/kg/treat i.p. daily for 5 days starting day 3
[8] = PXD101(60) mg/kg/treat i.p. daily for 5 days starting day 3
[9] = PXD101(100) mg/kg/treat i.p. daily for 5 days starting day 3

O=c1[nH]cc(F)c(=O)[nH]1 [5-FU, 5-fluorouracil]
tumour growth inhibition ([1]; 5-FU 15 mg/kg): ineffective
ILS % (Increased Life Span) [2, 7]: 60.0%
Survival time, Max [2, 7]: 18
Survival time, Median survival [2, 7]: 16
Survival time, Min [2, 7]: 15
Cumulative Survival ([2]; day 9, 5-FU (30)): 1
Cumulative Survival ([2]; day 9, 5-FU (50)): 1.00
Cumulative Survival ([2]; day 10, 5-FU (30)): 1
Cumulative Survival ([2]; day 10, 5-FU (50)): 0.55
Cumulative Survival ([2]; day 11, 5-FU (30)): 1
Cumulative Survival ([2]; day 11, 5-FU (50)): 0.15
Cumulative Survival ([2]; day 12, 5-FU (30)): 1
Cumulative Survival ([2]; day 12, 5-FU (50)): 0.15
Cumulative Survival ([2]; day 13, 5-FU (30)): 1
Cumulative Survival ([2]; day 13, 5-FU (50)): 0.15
Cumulative Survival ([2]; day 14, 5-FU (30)): 1
Cumulative Survival ([2]; day 14, 5-FU (50)): 0.15
Cumulative Survival ([2]; day 15, 5-FU (30)): 0.85
Cumulative Survival ([2]; day 15, 5-FU (50)): 0.15
Cumulative Survival ([2]; day 16, 5-FU (30)): 0.55
Cumulative Survival ([2]; day 16, 5-FU (50)): 0.15
Cumulative Survival ([2]; day 17, 5-FU (30)): 0.15
Cumulative Survival ([2]; day 17, 5-FU (50)): 0.15
Cumulative Survival ([2]; day 18, 5-FU (30)): 0
Cumulative Survival ([2]; day 18, 5-FU (50)): 0.15
Cumulative Survival ([2]; day 19, 5-FU (50)): 0.15
Cumulative Survival ([2]; day 20, 5-FU (50)): 0.15
Cumulative Survival ([2]; day 21, 5-FU (50)): 0.15
Cumulative Survival ([2]; day 22, 5-FU (50)): 0.15
Cumulative Survival ([2]; day 23, 5-FU (50)): 0.15
Cumulative Survival ([2]; day 24, 5-FU (50)): 0

Nc1nc(F)nc2c1ncn2[C@@H]1O[C@H](CO)[C@@H](O)[C@@H]1O [Fludarabin, Fludarabine]
Cumulative Survival ([2]; day 8, Fludarabin (50)): 1.00
Cumulative Survival ([2]; day 9, Fludarabin (50)): 0.85
Cumulative Survival ([2]; day 10, Fludarabin (50)): 0.55
Cumulative Survival ([2]; day 11, Fludarabin (50)): 0.40
Cumulative Survival ([2]; day 12, Fludarabin (50)): 0.40
Cumulative Survival ([2]; day 13, Fludarabin (50)): 0.40
Cumulative Survival ([2]; day 14, Fludarabin (50)): 0.40
Cumulative Survival ([2]; day 15, Fludarabin (50)): 0.30
Cumulative Survival ([2]; day 16, Fludarabin (50)): 0.30
Cumulative Survival ([2]; day 17, Fludarabin (50)): 0.15
Cumulative Survival ([2]; day 18, Fludarabin (50)): 0.15
Cumulative Survival ([2]; day 19, Fludarabin (50)): 0

O=C1[O][Pt]2([NH][C@@H]3CCCC[C@H]3[NH]2)[O]C1=O [Oxali, Oxaliplatin]
Cumulative Survival ([2]; day 9, Oxali (5)): 0.45
Cumulative Survival ([2]; day 10, Oxali (5)): 0

O=C(/C=C/c1cccc(S(=O)(=O)Nc2ccccc2)c1)NO [PXD-101]
tumour growth inhibition ([1]; PXD-101 60 and 100 mg/kg q1d x5/week for 2 weeks): significant tumour growth inhibition
IC50 [3]: 80 to 2430 nM
ILS % (Increased Life Span) [2, 8]: 30.0%
Survival time, Max [2, 8]: 14
Survival time, Median survival [2, 8]: 13
Survival time, Min [2, 8]: 12
ILS % (Increased Life Span) [2, 9]: 20.0%
Survival time, Max [2, 9]: 14
Survival time, Median survival [2, 9]: 12
Survival time, Min [2, 9]: 11
Cumulative Survival ([2]; day 9, PXD101 (60)): 1
Cumulative Survival ([2]; day 9, PXD101 (100)): 1
Cumulative Survival ([2]; day 10, PXD101 (60)): 1
Cumulative Survival ([2]; day 10, PXD101 (100)): 1
Cumulative Survival ([2]; day 11, PXD101 (60)): 1
Cumulative Survival ([2]; day 11, PXD101 (100)): 0.85
Cumulative Survival ([2]; day 12, PXD101 (60)): 0.70
Cumulative Survival ([2]; day 12, PXD101 (100)): 0.43
Cumulative Survival ([2]; day 13, PXD101 (60)): 0.15
Cumulative Survival ([2]; day 13, PXD101 (100)): 0.43
Cumulative Survival ([2]; day 14, PXD101 (60)): 0
Cumulative Survival ([2]; day 14, PXD101 (100)): 0.15
Cumulative Survival ([2]; day 15, PXD101 (100)): 0
level of EGFR protein [4]: apparently decreases the level of EGFR protein

C#Cc1cccc(Nc2ncnc3cc(OCCOC)c(OCCOC)cc23)c1 [Tarceva ®]
responsiveness of cells to Tarceva [5]: HCC-4006 (mutant EGFR; strongly responsive to Tarceva ®)
responsiveness of cells to Tarceva [6]: Calu-3 (wtEGFR; moderately responsive to Tarceva ®)
